Common to all, as to conditions: primary screen
For assay [1], the system named is ENR+CD organoids (ISC to Paneth cell differentiation). As to the kind of experiment: Primary screen: basal (non-stimulated) lysozyme secretion LYZ.NS, 2.5-D 384-well ENR+CD organoid differentiation. The format is cell-based, mouse. An excerpt: (§1) High-throughput screening.
For assay [2] the test system is unchanged. As to the kind of experiment: Primary screen: CCh-stimulated lysozyme secretion LYZ.S, 2.5-D 384-well ENR+CD organoid differentiation. The format is cell-based, mouse.
Description: as §1

For the next assay, the system named is ENR+CD organoids. As to the kind of experiment: Primary screen: ATP (CellTiter-Glo 3D, CTG) cell number/viability, 2.5-D 384-well ENR+CD organoids.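 Note: compounds given at plating and again on day 3 over a 6-day differentiation from ENR+CV stem-cell-enriched precursors, ATP measured on day 6, plate median as control.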 Background: Cellular ATP, detected with luciferase, serves as a proxy for viable cell number.

For VU 0357121, the Dose.FC.LYZ.NS in assay [1] (dose 0.08 uM) is recorded as 0.079 log2 fold change; in assay [1] (dose 0.40 uM), −0.010 log2 fold change; in assay [1] (dose 2.00 uM), 0.030 log2 fold change; in assay [1] (dose 10.00 uM) it was −0.027 log2 fold change. Also, the “Z.LYZ.NS (standard z score)” value in assay [1] (dose 0.08 uM) was 0.686; in assay [1] (dose 0.40 uM), −0.090; in assay [1] (dose 2.00 uM), 0.261; in assay [1] (dose 10.00 uM), −0.237. The Dose.FC.LYZ.S in assay [2] (dose 0.08 uM) is given as 0.152 log2 fold change; in assay [2] (dose 0.40 uM), 0.034 log2 fold change; in assay [2] (dose 2.00 uM) it was 0.007 log2 fold change; in assay [2] (dose 10.00 uM) it was −0.034 log2 fold change. In addition, the Dose.FC.CTG is recorded as 0.183 log2 fold change with ENR+CD organoids (dose 0.08 uM), 0.148 log2 fold change in the assay on ENR+CD organoids (dose 0.40 uM), 0.012 log2 fold change with ENR+CD organoids (dose 2.00 uM) and −0.059 log2 fold change in the assay on ENR+CD organoids (dose 10.00 uM). The “Z.CTG (standard z score)” value in the assay on ENR+CD organoids (dose 0.08 uM) is 0.438; in the assay with ENR+CD organoids (dose 0.40 uM) it was 0.352; in the assay on ENR+CD organoids (dose 2.00 uM) it was 0.029; in the assay on ENR+CD organoids (dose 10.00 uM), −0.141.
In the case of VU 0364439, the Dose.FC.LYZ.NS is recorded as 0.082 log2 fold change in assay [1] (dose 0.08 uM), 0.011 log2 fold change in assay [1] (dose 0.40 uM), 0.010 log2 fold change in assay [1] (dose 2.00 uM) and −0.055 log2 fold change in assay [1] (dose 10.00 uM). In addition, the “Z.LYZ.NS (standard z score)” value is listed as 0.715 in assay [1] (dose 0.08 uM), 0.099 in assay [1] (dose 0.40 uM), 0.089 in assay [1] (dose 2.00 uM) and −0.476 in assay [1] (dose 10.00 uM). Moreover, the Dose.FC.LYZ.S in assay [2] (dose 0.08 uM) is reported as 0.108 log2 fold change; in assay [2] (dose 0.40 uM), 0.124 log2 fold change; in assay [2] (dose 2.00 uM), −0.043 log2 fold change; in assay [2] (dose 10.00 uM), −0.038 log2 fold change. For the same substance, the Dose.FC.CTG is on record as 0.024 log2 fold change in the assay on ENR+CD organoids (dose 0.08 uM), −0.121 log2 fold change in the assay with ENR+CD organoids (dose 0.40 uM), −0.258 log2 fold change in the assay on ENR+CD organoids (dose 2.00 uM) and 0.009 log2 fold change in the assay with ENR+CD organoids (dose 10.00 uM). Moreover, the “Z.CTG (standard z score)” value is 0.058 in the assay with ENR+CD organoids (dose 0.08 uM), −0.289 in the assay with ENR+CD organoids (dose 0.40 uM), −0.616 with ENR+CD organoids (dose 2.00 uM) and 0.022 with ENR+CD organoids (dose 10.00 uM).
In the case of VU 0364770, the Dose.FC.LYZ.NS is 0.155 log2 fold change in assay [1] (dose 0.08 uM), 0.085 log2 fold change in assay [1] (dose 0.40 uM), 0.117 log2 fold change in assay [1] (dose 2.00 uM) and 0.102 log2 fold change in assay [1] (dose 10.00 uM). In addition, the “Z.LYZ.NS (standard z score)” value in assay [1] (dose 0.08 uM) amounted to 1.350; in assay [1] (dose 0.40 uM) it was 0.736; in assay [1] (dose 2.00 uM), 1.020; in assay [1] (dose 10.00 uM) it was 0.884. The Dose.FC.LYZ.S came to 0.082 log2 fold change in assay [2] (dose 0.08 uM), 0.125 log2 fold change in assay [2] (dose 0.40 uM), 0.139 log2 fold change in assay [2] (dose 2.00 uM) and 0.066 log2 fold change in assay [2] (dose 10.00 uM). Moreover, the Dose.FC.CTG in the assay on ENR+CD organoids (dose 0.08 uM) is given as 0.013 log2 fold change; with ENR+CD organoids (dose 0.40 uM) it was 0.085 log2 fold change; in the assay with ENR+CD organoids (dose 2.00 uM), 0.083 log2 fold change; in the assay with ENR+CD organoids (dose 10.00 uM) it was −0.103 log2 fold change. The “Z.CTG (standard z score)” value in the assay with ENR+CD organoids (dose 0.08 uM) was 0.031; in the assay on ENR+CD organoids (dose 0.40 uM), 0.204; in the assay on ENR+CD organoids (dose 2.00 uM), 0.199; in the assay on ENR+CD organoids (dose 10.00 uM), −0.246.
